According to patent US8287888B2, “Thermosensitive polyphosphazene-bioactive molecule conjugates, preparation method thereof and use thereof” (Korea Institute of Science and Technology, priority 2006, dated 2012):
Converted amounts (≈) assume the structure as drawn.

How the values were obtained:
[1] = Sol-gel phase transition with change of temperature (Brookfield rheometer); assay type: physicochemical; details: for Gel solidity (maximum viscosity of the polymer solution) / Max. gelling temp. (temperature where the viscosity of the polymer solution reaches the maximum point): 10 wt % in phosphate buffered saline (pH 7.4)
Procedure: The poly(organophosphazene) conjugated with a drug or bioactivemolecules obtained in Examples 1 to 11 were respectively dissolved in phosphate buffered saline (pH 7.4) at 4° C. so as to make solutions with concentrations of 10 wt %. The solutions were put into a chamber of a Brookfield DV-III+ Rheometer equipped with a thermostatic bath (TC-501).

[2] = system: human breast adenocarcinoma (MCF-7); assay: Anti-cancer activity in vitro, MTT; assay type: cell-based; details: for IC50: Homo sapiens
Procedure: (§1) In order to find out anticancer activity in vitro of the poly(organophosphazene) conjugated with anti-cancer drug of the present invention, the trial as follows was performed about the human breast adenocarcinoma (MCF-7, the Korea Cell Line Bank) and the human cervix adenocarcinoma (Hela, the Korea Cell Line Bank).
(§2) For the in vitro cell experiment, in order to measure the genesistasis concentration to 50% (IC50) toward the cancer cell of the poly(organophosphazene) conjugated with anticancer drug, the analytical method using 3-(4,5-dimethylthiazol-2-yl)-2,5-diphenyl-2H-tetrazolium bromide (MTT) was performed [T. Mosmann, J. Immunol. Method, 65, (1985) 55].
(§3) The materials for to measuring were respectively melted in the DMSO (dimethylsulfoxide) of the small amount, and they were diluted to the distilled water with 200 times. The materials solution were added to the cancer cell that is MCF-7(the Korea Cell Line Bank) and Hela (the Korea Cell Line Bank). Then, they were added to 96-well microtiter plater to 1.0×10^4 cell/ml (the concentration of the cancer cell). And they were cultivated for 2, 3, 4 days, respectively, with 37° C. in 5% CO2 condition.
(§4) MTT solution (20 μl) was mixed the cultivated cell with, and they were more cultivated for 4 hours with 37° C. in 5% CO2 condition. After the upper culture medium of each cell was removed, DMSO (100 μl) was added to a well and they were shaken in the room temperature to the plate shaker with for 20 minutes, thereby dissolving the formazan crystal generated by reducing of MTT.

[3] = system: human cervix adenocarcinoma (Hela); assay: Anti-cancer activity in vitro, MTT; assay type: cell-based; details: for IC50: Homo sapiens, HeLa
Procedure: as §1, §2, §3, §4

[4] = Hydrolysis of the polymer with time by GPC molecular weight; assay type: physicochemical; details: 10 wt % in PBS pH 7.4, 37° C., compared among Examples 3, 4 and 9
[5] = system: stomach cancer, SNU-601; assay: Anti-cancer activity in vivo of hydrogel conjugated with paclitaxel; set-up: species or system nude mouse (Balb/C)
Procedure: The anti-cancer activity in vivo of the poly(organophosphazene) hydrogel conjugated with paclitaxel prepared by the method of Example 1 was determined by the following method.
A nude mouse (OrientalBio, Balb/C, female of 5-weeks old, 20 g) was used as an animal model for animal experimentation for an in vivo test. Cells of stomach cancer, SNU-601 (1×10^7 cells, 0.2 ml, the Korean Cell Line Bank), were injected into the dorsum of the mouse. A polymer solution containing the 10 wt % poly(organophosphazene)-paclitaxel conjugate of Example 1 in phosphate buffered saline (pH 7.4) was prepared. 0.1 ml and 0.2 ml of the solution were respectively injected into the cancer cells, and the change in the size of the cells was measured.
When the solution is injected in an amount as much as 0.1 ml, the amount of paclitaxel injected is 10 mg per 1 kg of the mouse weight. When the solution is injected in an amount as much as 0.2 ml, the amount of paclitaxel injected is […] per 1 kg of the mouse weight.
(§5) As the control group, the magnitude transition of the cancer cell into which paclitaxel was injected in the amount of 60 mg per 1 kg of the mouse weight and that of the cancer cell into which saline was administered instead of the anti-cancer drug were measured respectively. The number of mouse used was 10 heads respectively.

[6] = system: Stomach cancer cells, SNU-601; assay: Anti-cancer activity in vivo of hydrogel conjugated with doxorubicin; set-up: species or system nude mouse (Balb/C)
Procedure: The anti-cancer activity in vivo of the poly(organophosphazene) hydrogel conjugated with doxorubicin prepared by the method of Example 5 was determined by the following method.
A nude mouse (OrientalBio, Balb/C, female of 5-weeks old, 20 g) was used as an animal model for animal experimentation for an in vivo test. Stomach cancer cells, SNU-601 (1×10^7 cells, 0.2 ml, the Korean Cell Line Bank), were injected into the dorsum of the mouse. A polymer solution containing the 10 wt % poly(organophosphazene)-doxorubicin conjugate of Example 5 in phosphate buffered saline (pH 7.4) was prepared. 0.1 ml and 0.2 ml of the solution was respectively injected into the cancer cells, and the change in the size of the cancer cells was measured.
When the solution is injected in an amount as much as 0.1 ml, the amount of doxorubicin injected is 30 mg per 1 kg of the mouse weight. When the solution is injected in an amount as much as 0.2 ml, the amount of doxorubicin injected is 60 mg per 1 kg of the mouse weight.
as §5, with “which doxorubicin” for “which paclitaxel”, “of 30” for “of 60”, “that to” for “that of the cancer cell into”, “saline is” for “saline was”

poly[(isoleucineethylester)(aminomethoxypolyethyleneglycol 550)(glycylglycine)(glycylglycylglycin-arginine-glycin-asparagine-cerinicacidpeptied)phosphazene] [Example 8]
Gel solidity (maximum viscosity of the polymer solution) [1]: 318 Pa · s
Max. gelling temp. (temperature where the viscosity of the polymer solution reaches the maximum point) [1]: 39 °C

poly[(isoleucineethylester)(aminomethoxypolyethyleneglycol 550)(glycylglycine)(glycylglycyldoxorubicin)phosphazene] [Example 4]
Anti-cancer activity [IC50] ([2]; MCF-7, 2nd day): 2.829 µg/mL
Anti-cancer activity [IC50] ([2]; MCF-7, 3rd day): 2.801 µg/mL
Anti-cancer activity [IC50] ([2]; MCF-7, 4th day): 1.641 µg/mL
Anti-cancer activity [IC50] ([3]; 2nd day): 1.425 µg/mL
Anti-cancer activity [IC50] ([3]; 3rd day): 0.892 µg/mL
Anti-cancer activity [IC50] ([3]; 4th day): 0.283 µg/mL
Gel solidity (maximum viscosity of the polymer solution) [1]: 88 Pa · s
Max. gelling temp. (temperature where the viscosity of the polymer solution reaches the maximum point) [1]: 37 °C

poly[(isoleucineethylester)(aminomethoxypolyethyleneglycol 550)(glycylglycine)(glycylglycylglycmethylester)(glycylglycylglycin-arginine-glycin-asparagine-cerinicacidpeptied)phosphazene] [Example 9]
speed of hydrolysis (reduced molecular weight by GPC) [4]: the most quickly hydrolyzed
Gel solidity (maximum viscosity of the polymer solution) [1]: 130 Pa · s
Max. gelling temp. (temperature where the viscosity of the polymer solution reaches the maximum point) [1]: 46 °C
viscosity in 37° C. ([1]; compared among Examples 3, 4 and 9): the lowest viscosity

poly[(isoleucineethylester)(aminomethoxypolyethyleneglycol 550)(glycylglycine)(glycylglycylglycin-arginine-glycin-asparagine-cerinicacidpeptied)phosphazene] [Example 7]
Gel solidity (maximum viscosity of the polymer solution) [1]: 145 Pa · s
Max. gelling temp. (temperature where the viscosity of the polymer solution reaches the maximum point) [1]: 42 °C

poly[(isoleucineethylester)(aminomethoxypolyethyleneglycol 550)(glycylglycine)(glycylglycylpaclitaxel)phosphazene] [Example 2]
Anti-cancer activity [IC50] ([2]; MCF-7, 2nd day): 0.027 µg/mL
Anti-cancer activity [IC50] ([2]; MCF-7, 3rd day): 0.021 µg/mL
Anti-cancer activity [IC50] ([2]; MCF-7, 4th day): 0.007 µg/mL
Anti-cancer activity [IC50] ([3]; 2nd day): 0.082 µg/mL
Anti-cancer activity [IC50] ([3]; 3rd day): 0.079 µg/mL
Anti-cancer activity [IC50] ([3]; 4th day): 0.048 µg/mL
Gel solidity (maximum viscosity of the polymer solution) [1]: 230 Pa · s
Max. gelling temp. (temperature where the viscosity of the polymer solution reaches the maximum point) [1]: 38 °C

poly[(isoleucineethylester)(aminomethoxypolyethyleneglycol 750)(glycylglycine)(glycylglycyldoxorubicin)phosphazene] [Example 6]
Gel solidity (maximum viscosity of the polymer solution) [1]: 313 Pa · s
Max. gelling temp. (temperature where the viscosity of the polymer solution reaches the maximum point) [1]: 46 °C

poly[(isoleucineethylester)(aminomethoxypolyethyleneglycol 550)(glycylglycine)(glycylglycin)(glycylglycylglycin-arginine-glycin-asparagine-cerinicacidpeptied)phosphazene] [Example 11]
Gel solidity (maximum viscosity of the polymer solution) [1]: 155 Pa · s
Max. gelling temp. (temperature where the viscosity of the polymer solution reaches the maximum point) [1]: 44 °C

poly[(isoleucineethylester)(aminomethoxypolyethyleneglycol 550)(glycylglycine)(glycylglycylpaclitaxel)phosphazene] [Example 1]
Anti-cancer activity [IC50] ([2]; MCF-7, 2nd day): 0.025 µg/mL
Anti-cancer activity [IC50] ([2]; MCF-7, 3rd day): 0.018 µg/mL
Anti-cancer activity [IC50] ([2]; MCF-7, 4th day): 0.003 µg/mL
Anti-cancer activity [IC50] ([3]; 2nd day): 0.099 µg/mL
Anti-cancer activity [IC50] ([3]; 3rd day): 0.057 µg/mL
Anti-cancer activity [IC50] ([3]; 4th day): 0.022 µg/mL
Gel solidity (maximum viscosity of the polymer solution) [1]: 128 Pa · s
Max. gelling temp. (temperature where the viscosity of the polymer solution reaches the maximum point) [1]: 40 °C
size of the cancer cells decreased to ([5]; 0.1 ml intratumoral (paclitaxel 10 mg/kg), after 26 days): 60%
size of the cancer cells decreased to ([5]; 0.1 ml intratumoral (paclitaxel 10 mg/kg), after 34 days): 57%
size of the cancer cells decreased to ([5]; 0.2 ml intratumoral (paclitaxel 30 mg/kg), after 26 days): 81%
size of the cancer cells decreased to ([5]; 0.2 ml intratumoral (paclitaxel 30 mg/kg), after 34 days): 81%

poly[(isoleucineethylester)(aminomethoxypolyethyleneglycol 550)(glycylglycine)(glycylglycyldoxorubicin)phosphazene] [Example 5]
Gel solidity (maximum viscosity of the polymer solution) [1]: 1477 Pa · s
Max. gelling temp. (temperature where the viscosity of the polymer solution reaches the maximum point) [1]: 39 °C
size of the cancer cells decreased to ([6]; 0.1 ml intratumoral (doxorubicin 30 mg/kg), after 14 days): 68%
size of the cancer cells decreased to ([6]; 0.1 ml intratumoral (doxorubicin 30 mg/kg), after 26 days): 173%
size of the cancer cells decreased to ([6]; 0.1 ml intratumoral (doxorubicin 30 mg/kg), after 28 days): 168%
size of the cancer cells decreased to ([6]; 0.2 ml intratumoral (doxorubicin 60 mg/kg), after 14 days): 155%
size of the cancer cells decreased to ([6]; 0.2 ml intratumoral (doxorubicin 60 mg/kg), after 22 days): 195%
size of the cancer cells decreased to ([6]; 0.2 ml intratumoral (doxorubicin 60 mg/kg), after 28 days): 182%
mortality ([6]; doxorubicin concentration of 30 mg/kg as hydrogel, 10 mice per group): did not die
mortality ([6]; doxorubicin concentration of 60 mg/kg as hydrogel, 10 mice per group): did not die

CC(=O)O[C@H]1C(=O)[C@@]2(C)[C@H]([C@H](OC(=O)c3ccccc3)[C@]3(O)C[C@H](OC(=O)[C@H](O)[C@@H](NC(=O)c4ccccc4)c4ccccc4)C(C)=C1C3(C)C)[C@]1(OC(C)=O)CO[C@@H]1C[C@@H]2O [paclitaxel, reference compound]
IC50 ([2]; MCF7, MCF-7, 2nd day): 0.022 µg/mL (≈ 0.0258 µM)
IC50 ([2]; MCF7, MCF-7, 3rd day): 0.006 µg/mL (≈ 0.00703 µM)
IC50 ([2]; MCF7, MCF-7, 4th day): 0.002 µg/mL (≈ 0.00234 µM)
IC50 ([3]; 2nd day): 0.083 µg/mL (≈ 0.0972 µM)
IC50 ([3]; 3rd day): 0.021 µg/mL (≈ 0.0246 µM)
IC50 ([3]; 4th day): 0.014 µg/mL (≈ 0.0164 µM)
mice died due to toxicity ([5]; 60 mg/kg, after 10 days, 10 mice per group): 8 mouse heads

poly[(isoleucineethylester)(aminomethoxypolyethyleneglycol 550)(glycylglycine)(glycylglycylglycylethylester)(glycylglycylglycin-arginine-glycin-asparagine-cerinicacidpeptied)phosphazene] [Example 10]
Gel solidity (maximum viscosity of the polymer solution) [1]: 238 Pa · s
Max. gelling temp. (temperature where the viscosity of the polymer solution reaches the maximum point) [1]: 42 °C

COc1cccc2c1C(=O)c1c(O)c3c(c(O)c1C2=O)C[C@@](O)(C(=O)CO)C[C@@H]3O[C@H]1C[C@H](N)[C@H](O)[C@H](C)O1 [doxorubicin, reference compound]
IC50 ([2]; MCF7, MCF-7, 2nd day): 2.29 µg/mL (≈ 4.22 µM)
IC50 ([2]; MCF7, MCF-7, 3rd day): 1.69 µg/mL (≈ 3.11 µM)
IC50 ([2]; MCF7, MCF-7, 4th day): 1 µg/mL (≈ 1.85 µM)
IC50 ([3]; 2nd day): 0.321 µg/mL (≈ 0.591 µM)
IC50 ([3]; 3rd day): 0.692 µg/mL (≈ 1.27 µM)
IC50 ([3]; 4th day): 0.19 µg/mL (≈ 0.35 µM)
mortality due to toxicity ([6]; free doxorubicin 30 mg/kg, after 14 days, 10 mice per group): all of mouse died
